Patent publication US20190225650A1, “PEPTIDOMIMETIC MACROCYCLES AND USE THEREOF IN REGULATING HIF1ALPHA” (AILERON THERAPEUTICS, INC., priority 2013, published 2019)
Bridge positions count the residues as written; N and C are the ends. Square brackets hold non-standard residues; d marks the D form. Peptide text beside a SMILES is read from it. R8 = C=CCCCCCC[C@@](C)(N)C(=O)O; S5 = C=CCCC[C@](C)(N)C(=O)O; Nle = CCCC[C@H](N)C(=O)O

How the values were obtained:
HRE-bla ME-180 cells [1] = assay: Cell proliferation assay (viability, MTT, 1% FBS); format: cell-based, human
In short: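 Viable cell number was measured with the CellTiter 96 (MTT) kit after compounds were applied for a 16 h normoxic (21% O2) pretreatment, followed by further normoxic or hypoxic (1% O2) culture. Cells: 2×10^4 ME-180 per well, Opti-MEM + 1% FBS, 0.5% DMSO vehicle.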

HRE-bla ME-180 cells [2] = assay: Reporter gene assay (HRE-bla ME-180 HIF reporter, GeneBLAzer); format: cell-based, human; conditions: for EC50: 24 hour normoxia
In short: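 A FRET β-lactamase readout of HIF transcription was used. After compound treatment in 0.3% DMSO/media under normoxic conditions, 20 μl of 6× LiveBLAzer-FRET B/G (CCF4-AM) substrate was added. Plates sat 3 hr at room temperature in the dark and were read at 409 Ex/460Em and 409Ex/530Em on a Synergy 2. Inhibition was compared against DMSO vehicle controls, with chetomin as positive control.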

[3] = target: T1, flag-tagged HIF1α (AA 786-826) / His6-tagged p300 (AA 323-423) complex (Homo sapiens, UniProt Q09472); assay: HIF1α p300 displacement assay (TR FRET, +CHAPS); format: binding; conditions: read-out: IC50 (nM) (HIF1α_p300 Displacement + CHAPS)
T1 construct: His6-tagged p300 (AA 323-423); made in house; host or cells: E. coli (pETDuet vector)
In short: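 In this TR-FRET displacement format, peptides compete HIF1α C-terminal transactivation domain off p300-CH. They were preincubated 1 h at room temperature with 300 nM complex in HEPES pH 7.4/NaCl buffer with 7.5 mM CHAPS and 1 mM DTT. Anti-His-D2 (4 nM) and anti-Flag-K (0.5 μM) followed for 2 h, and a one-site fit of the fluorescence ratio gave IC50.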

Row | SMILES | Viability 1% FBS AVG (MTT V3-24 hr Normoxia) (μM) (HRE-bla ME-180 cells [1]) | 18 h Avg % max inhibition at top conc (HIF Rptr-24 hrs normoxia) (μM) (HRE-bla ME-180 cells [2]) | EC50 (HRE-bla ME-180 cells [2]) [µM] | IC50 [3] [nM]
1 | CCCC[C@H](NC(=O)[C@H](CCC(=O)O)NC(=O)[C@@H](NC(=O)[C@@H](NC(=O)[C@H](CC(C)C)NC(=O)[C@]1(C)CCCC=CCCC[C@](C)(NC(=O)[C@H](CCC(=O)O)NC(=O)[C@H](CC(=O)O)NC(=O)[C@@H](NC(=O)[C@H](Cc2ccccc2)NC(C)=O)[C@@H](C)CC)C(=O)N[C@@H](C(C)C)C(=O)N[C@@H](CC(C)C)C(=O)N[C@@H](CCCC)C(=O)N1)C(C)C)[C@@H](C)CC)C(=O)N[C@@H](C)C(=O)N[C@@H](CC(C)C)C(=O)N[C@@H](CC(=O)O)C(=O)N[C@@H](CCCNC(=N)N)C(=O)N[C@H](C(N)=O)[C@@H](C)CC [SP-109] (Ac-FIDE[S5]VL[Nle][S5]LVIE[Nle]ALDRI-NH2; staple 5-9) | ++ (≤5 but <15: ++) | + (<10: +) | > 30 | 200 to 400
2 | CCCC[C@H](NC(=O)[C@H](CCC(=O)O)NC(=O)[C@]1(C)CCCC=CCCCCCC[C@@](C)(NC(=O)[C@H](CCC(=O)O)NC(=O)[C@H](CC(=O)O)NC(=O)[C@@H](NC(=O)[C@H](CC(N)=O)NC(=O)[C@@H](NC(=O)[C@H](CCC(N)=O)NC(=O)[C@]2(C)CCCC=CCCC[C@](C)(NC(=O)[C@H](CC(C)C)NC(=O)[C@H](CCC(=O)O)NC(=O)[C@H](CCC(=O)O)NC(C)=O)C(=O)N[C@@H](CCCNC(=N)N)C(=O)N[C@@H](C)C(=O)N[C@@H](CC(C)C)C(=O)N2)C(C)C)[C@@H](C)CC)C(=O)N[C@@H](C(C)C)C(=O)N[C@@H](CC(C)C)C(=O)N[C@@H](CCCC)C(=O)N[C@@H](CO)C(=O)N[C@@H](CC(C)C)C(=O)N[C@@H](C(C)C)C(=O)N1)C(N)=O [SP-366] (Ac-EEL[S5]RAL[S5]QVNIDE[R8]VL[Nle]SLV[S5]E[Nle]-NH2; staple 4-8, 15-22) | ++++ (≥30: ++++) | ++++ (≥50: ++++) | ≤ 5 | > 700
3 | CCCC[C@H](NC(=O)[C@]1(C)CCCC=CCCC[C@](C)(NC(=O)[C@H](CCSC)NC(=O)[C@H](CC(C)C)NC(=O)[C@@H](NC(=O)[C@H](CCC(=O)O)NC(=O)[C@H](CCC(=O)O)NC(=O)[C@H](CC(=O)O)NC(=O)[C@@H](NC(=O)[C@H](Cc2ccccc2)NC(C)=O)[C@@H](C)CC)C(C)C)C(=O)N[C@@H](CC(C)C)C(=O)N[C@@H](C(C)C)C(=O)N[C@@H]([C@@H](C)CC)C(=O)N1)C(=O)N[C@@H](C)C(=O)N[C@@H](CC(C)C)C(N)=O [SP-225] (Ac-FIDEEVLM[S5]LVI[S5][Nle]AL-NH2; staple 9-13) | ++++ (≥30: ++++) | +++ (≤25 but <50: +++) | > 30 | > 700
4 | CCCC[C@H](NC(=O)[C@H](CCC(=O)O)NC(=O)[C@@H](NC(=O)[C@@H](NC(=O)[C@H](CC(N)=O)NC(=O)[C@]1(C)CCCC=CCCC[C@](C)(NC(=O)[C@H](CCC(=O)O)NC(=O)[C@H](CC(=O)O)NC(=O)[C@@H](NC(=O)[C@H](Cc2ccccc2)NC(C)=O)[C@@H](C)CC)C(=O)N[C@@H](C(C)C)C(=O)N[C@@H](CC(C)C)C(=O)N[C@@H](CCCC)C(=O)N1)C(C)C)[C@@H](C)CC)C(=O)N[C@@H](C)C(=O)N[C@@H](CC(C)C)C(N)=O [SP-143] (Ac-FIDE[S5]VL[Nle][S5]NVIE[Nle]AL-NH2; staple 5-9) | ++ (≤5 but <15: ++) | ++++ (≥50: ++++) | 5 to 15 | 400 to 700
